Data reported in US7169789B2 (Kirin Beer Kabushiki Kaisha, priority 1999, dated 2007).

What was measured:
human KDR = molecular target: T1, human KDR (Homo sapiens, UniProt P35968); experiment: Inhibitory activity against KDR phosphorylation by ELISA; assay type: cell-based; conditions: NIH 3T3 cells transfected with human KDR, VEGF 100 ng/ml
T1 construct: expressed in transfected cells; host or cells: NIH 3T3 cells (Sawano A et al., Cell Growth & Differentiation 7, 213-221 (1996))
Method: Measurement of Inhibitory Activity Against KDR Phosphorylation by ELISA
NIH 3T3 cells (Sawano A et al., Cell Growth & Differentation, 7, 213–221 (1996), “Flt-1 but not KDR/Flk-1 tyrosine kinase is a receptor for placenta growth factor, which is related to vascular endothelial growth factor”) prepared by transfection of human KDR were cultured in a DMEM medium containing 10% fetal calf serum (purchased from GIBCO BRL) within a 5% carbon dioxide incubator until 50 to 70% confluent. The harvested cells were inoculated into wells, containing the same medium, in a collagen-type one-coat 96-well flat-bottom plate in an amount of 1.5×10^4 per well, followed by cultivation at 37° C. overnight. The medium was then replaced by a DMEM medium containing 0.1% fetal calf serum. A solution of the test compound in dimethyl sulfoxide was added to each well, and the cultivation was continued at 37° C. for additional one hr. A human recombinant vascular endothelial growth factor (hereinafter abbreviated to “VEGF”) was added to a final concentration of 100 ng/ml, and the stimulation of cells was carried out at 37° C. for 2 min. The medium was removed, the cells were washed with phosphate buffered saline (pH 7.4), and 50 μl of a solubilization buffer (20 mM HEPES (pH 7.4), 150 mM NaCl, 0.2% Triton X-100, 10% glycerol, 5 mM sodium orthovanadylate, 5 mM disodium ethylenediaminetetraacetate, and 2 mM Na4P2O7) was then added thereto. The mixture was shaken at 4° C. for 2 hr to prepare a cell extract.
Separately, phosphate buffered saline (50 μl, pH 7.4) containing […] of anti-phospho-tyrosine antibody (PY20; purchased from Transduction Laboratories) was added to a microplate for ELISA (Maxisorp; purchased from NUNC), followed by standing at 4° C. overnight to form a solid phase on the wells. After washing of the plate, 300 μl of a blocking solution was added, followed by standing at room temperature for 2 hr to perform blocking. After washing, the whole quantity of the cell extract was transferred to the wells, and the plate was then allowed to stand at 4° C. overnight. After washing, an anti-KDR antibody (purchased from Santa Cruz) was allowed to react at room temperature for one hr, and, after washing, a peroxidase-labeled anti-rabbit Ig antibody (purchased from Amersham) was allowed to react at room temperature for one hr. After washing, a chromophoric substrate for peroxidase (purchased from Sumitomo Bakelite Co., Ltd.) was added thereto to initiate a reaction. After a suitable level of color development, a reaction termination solution was added to stop the reaction, and the absorbance at 450 nm was measured with a microplate reader. The KDR phosphorylation activity for each well was determined by presuming the absorbance with the addition of VEGF and without the addition of the medicament to be 100% KDR phosphorylation activity and the absorbance without the medicament and VEGF to be 0% KDR phosphorylation activity. The concentration of the test compound was varied on several levels, the inhibition (%) of KDR phosphorylation was determined for each case, and the concentration of the test compound necessary for inhibiting 50% of KDR phosphorylation (IC50) was calculated.

Human glioma cells GL07 = experiment: Antitumor effect on human glioma cells (GL07) transplanted into nude mice; assay type: in vivo; conditions: GL07, oral, 20 mg/kg once a day for 9 days; for inhibition in vivo at 20 mg/kg: Mus musculus, Glioma cell, 216 h, read-out: TGIR, % (tumor growth inhibition rate)
Method: Antitumor Effect on Human Glioma Cells (GL07)
Human glioma cells GL07 (obtained from Central Laboratories for Experimental Animals) were transplanted into nude mice. When the tumor volume became about 100 mm^3, the mice were grouped. In this case, grouping was carried out so that each group consisted of four mice and the average tumor volume was even among the groups. The test compound was orally or intraperitoneally administered at a dose of 20 mg/kg to the test groups every day once a day for 9 days, while the medium was administered to the control group in the manner as in the test groups. The tumor growth inhibition rate (TGIR) was calculated as follows: The tumor growth inhibition rate (TGIR)=(1−Tx/Cx)×100 wherein Cx represents the volume of tumor at day x for the control group when the tumor volume at the day of the start of the administration was presumed to be 1; and Tx represents the volume of tumor for test compound administration groups.

T1 sequence (P35968 20-1356): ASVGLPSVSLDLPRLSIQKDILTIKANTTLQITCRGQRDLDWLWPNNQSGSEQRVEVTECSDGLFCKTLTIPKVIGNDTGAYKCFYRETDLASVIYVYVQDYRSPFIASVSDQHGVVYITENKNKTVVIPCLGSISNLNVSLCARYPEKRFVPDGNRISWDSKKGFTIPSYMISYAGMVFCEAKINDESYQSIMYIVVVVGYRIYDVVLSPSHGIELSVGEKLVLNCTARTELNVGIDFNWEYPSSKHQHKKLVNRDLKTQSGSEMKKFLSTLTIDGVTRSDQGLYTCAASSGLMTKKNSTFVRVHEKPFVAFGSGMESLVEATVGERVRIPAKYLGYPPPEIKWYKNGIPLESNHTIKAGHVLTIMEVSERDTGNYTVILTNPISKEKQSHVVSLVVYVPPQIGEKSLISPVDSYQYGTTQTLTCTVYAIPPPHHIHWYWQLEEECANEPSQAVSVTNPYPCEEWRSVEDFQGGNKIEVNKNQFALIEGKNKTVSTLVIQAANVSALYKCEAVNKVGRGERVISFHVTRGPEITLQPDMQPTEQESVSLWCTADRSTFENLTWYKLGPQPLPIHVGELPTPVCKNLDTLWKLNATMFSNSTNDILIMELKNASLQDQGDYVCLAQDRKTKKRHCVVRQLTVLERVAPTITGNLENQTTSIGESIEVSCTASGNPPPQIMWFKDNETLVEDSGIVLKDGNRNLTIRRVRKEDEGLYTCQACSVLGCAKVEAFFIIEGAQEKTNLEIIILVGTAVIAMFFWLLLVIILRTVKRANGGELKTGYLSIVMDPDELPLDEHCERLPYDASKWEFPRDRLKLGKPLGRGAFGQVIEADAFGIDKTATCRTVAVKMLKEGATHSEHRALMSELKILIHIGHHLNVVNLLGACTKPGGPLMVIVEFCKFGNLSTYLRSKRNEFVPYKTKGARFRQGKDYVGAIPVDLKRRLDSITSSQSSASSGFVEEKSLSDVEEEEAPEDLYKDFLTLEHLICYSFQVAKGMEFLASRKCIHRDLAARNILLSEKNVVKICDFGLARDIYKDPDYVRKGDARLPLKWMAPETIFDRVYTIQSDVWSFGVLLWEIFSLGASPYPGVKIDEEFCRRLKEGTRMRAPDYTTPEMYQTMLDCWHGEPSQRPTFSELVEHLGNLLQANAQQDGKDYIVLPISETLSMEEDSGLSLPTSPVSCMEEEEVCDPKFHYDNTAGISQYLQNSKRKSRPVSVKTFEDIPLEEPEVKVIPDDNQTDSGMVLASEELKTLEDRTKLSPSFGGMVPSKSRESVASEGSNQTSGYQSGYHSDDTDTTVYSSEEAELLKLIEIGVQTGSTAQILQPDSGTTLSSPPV

Compound | IC50 (human KDR) [nM] | inhibition in vivo at 20 mg/kg (Human glioma cells GL07) [%] | TGIR, % (tumor growth inhibition rate) (Human glioma cells GL07) [%]
CCCNC(=O)Nc1ccc(Oc2ccnc3cc(OCCCN4CCOCC4)c(OC)cc23)cc1Cl [Example 151, N-(2-chloro-4-{[6-methoxy-7-(3-morpholinopropoxy)-4-quinolyl]oxy}phenyl)-N′-propylurea] | 0.5 | 44 | 
CCCNC(=O)Nc1ccc(Oc2ccnc3cc(OCCCN4CCN(C)CC4)c(OC)cc23)cc1Cl [Example 152, N-[2-chloro-4-(6-methoxy-7-{[3-(4-methylpiperazino)propoxy]-4-quinolyl}oxy)phenyl]-N′-propylurea] | 0.8 | 44 | 
CCCNC(=O)Nc1ccc(Oc2ccnc3cc(OCCCn4ccnn4)c(OC)cc23)cc1Cl [Example 153, N-[2-chloro-4-(6-methoxy-7-{[3-(1H-1,2,3-triazol-1-yl)propoxy]-4-quinolyl}oxy)phenyl]-N′-propylurea] | 1.5 | 53 | 
CCCNC(=O)Nc1ccc(Oc2ccnc3cc(OCCCn4ccnc4)c(OC)cc23)cc1Cl [Example 154, N-[2-Chloro-4-({7-[3-(1H-1-imidazolyl)-propoxy]-6-methoxy-4-guinolyl}oxy)phenyl]-N′-propylurea] | 1.5 | 34 | 
CCCNC(=O)Nc1ccc(Oc2ccnc3cc(OCCN(CCO)CCO)c(OC)cc23)cc1Cl [Example 155, N-{2-Chloro-4-[(7-{2-[di(2-hydroxyethyl)-amino]ethoxy}-6-methoxy-4-guinolyl)oxy]phenyl}-N-propylurea] | 2.1 | 29 | 
CCCNC(=O)Nc1ccc(Oc2ccnc3cc(OCCCN(CCO)CCO)c(OC)cc23)cc1Cl [Example 156, N-{2-Chloro-4-[(7-{3-[di(2-hydroxyethyl)-amino]propoxy}-6-methoxy-4-guinolyl)oxy]phenyl}-N′-propylurea] | 0.8 | 24 | 
CCCNC(=O)Nc1ccc(Oc2ccnc3cc(OCCCN(C)CCO)c(OC)cc23)cc1Cl [Example 157, N-{2-chloro-4-[(7-{3-[(2-hydroxyethyl)-(methyl)amino]propoxy}-6-methoxy-4-quinolyl)oxy]-phenyl}-N′-propylurea] | 0.4 | 44 | 
CCCNC(=O)Nc1ccc(Oc2ccnc3cc(OCCCCn4ccnn4)c(OC)cc23)cc1Cl [Example 158, N-[2-Chloro-4-({6-methoxy-7-[4-(1H-1,2,3-triazol-1-yl)butoxy]-4-guinolyl}oxy)phenyl]-N′-propylurea] | 1.6 | 39 | 
CCCNC(=O)Nc1ccc(Oc2ccnc3cc(OCCCCCn4ccnn4)c(OC)cc23)cc1Cl [Example 159, N-{2-chloro-4-[(6-methoxy-7-{[5-(1H-1,2,3-triazol-1-yl)pentyl]oxy}-4-quinolyl)oxy]phenyl}-N′-propylurea] | 1.9 | 40 | 
CCCNC(=O)Nc1ccc(Oc2ccnc3cc(OCCCCn4ccnc4)c(OC)cc23)cc1Cl [Example 160, N-[2-chloro-4-(7-{[4-(1H-1-imidazolyl)-butoxy]-6-methoxy-4-quinolyl}oxy)phenyl]-N′-propylurea] | 0.9 |  | 43
COc1cc2c(Oc3ccc(NC(=O)Nc4ccc(F)cc4F)c(Cl)c3)ncnc2cc1OCc1ccncc1 [Example 161, N-(2-Chloro-4-{[6-methoxy-7-(4-pyridylmethoxy)-4-quinazolinyl]oxy}phenyl)-N′-(2,4-difluorophenyl)urea] | 3.9 | 39 | 
COc1cc2c(Oc3ccc(NC(=O)Nc4ccc(F)cc4F)c(Cl)c3)ncnc2cc1OCCN1CCOCC1 [Example 162, N-(2-chloro-4-{[6-methoxy-7-(2-morpholinoethoxy)-4-quinazolinyl]oxy}phenyl)-N′-(2,4-difluorophenyl)urea] | 1 | 40 | 
COc1cc2c(Oc3ccc(NC(=O)Nc4ccc(F)cc4F)c(Cl)c3)ncnc2cc1OCCCN1CCOCC1 [Example 163, N-(2-chloro-4-{[6-methoxy-7-(3-morpholinopropoxy)-4-quinazolinyl]oxy}phenyl)-N′-(2,4-difluorophenyl)urea] | 1.4 | 52 | 
COc1cc2c(Oc3ccc(NC(=O)Nc4ccc(F)cc4F)c(Cl)c3)ncnc2cc1OCCCN1CCN(C)CC1 [Example 164, N-[2-chloro-4-(6-methoxy-7-{[3-(4-methylpiperazino)propoxy]-4-quinazolinyl}oxy)phenyl]-N′-(2,4-difluorophenyl)urea] | 0.9 |  | 55
COc1cc2c(Oc3ccc(NC(=O)Nc4ccc(F)cc4F)c(Cl)c3)ncnc2cc1OCCCN(C)CCO [Example 165, N-{2-chloro-4-[(7-{3-[(2-hydroxyethyl)-(methyl)amino]propoxy}-6-methoxy-4-quinazolinyl)oxy]-phenyl}-N′-(2,4-difluorophenyl)urea] | 0.6 | 44 | 
COc1cc2c(Oc3ccc(NC(=O)Nc4ccc(F)cc4F)c(Cl)c3)ccnc2cc1OCCN1CCN(C)CC1 [Example 166, N-[2-Chloro-4-({6-methoxy-7-[2-(4-methylpiperazino)ethoxy]-4-guinolyl}oxy)phenyl]-N′-(2,4-difluorophenyl)urea] | 2.2 | 27 | 
COc1cc2c(Oc3ccc(NC(=O)Nc4ccc(F)cc4F)c(Cl)c3)ccnc2cc1OCCN(C)CCO [Example 167, N-{2-Chloro-4-[(7-{2-[(2-hydroxyethyl)-(methyl)amino]ethoxy}-6-methoxy-4-guinolyl)oxy]phenyl}-N′-(2,4-difluorophenyl)urea] | 2.1 | 28 | 
COc1cc2c(Oc3ccc(NC(=O)Nc4ccc(F)cc4F)c(Cl)c3)ccnc2cc1OCCCN1CCOCC1 [Example 168, N-(2-chloro-4-{[6-methoxy-7-(3-morpholinopropoxy)-4-quinolyl]oxy}phenyl)-N′-(2,4-difluorophenyl)-urea] | 4 | 42 | 
COc1cc2c(Oc3ccc(NC(=O)Nc4ccc(F)cc4F)c(Cl)c3)ccnc2cc1OCc1cccnc1 [Example 169, N-(2-chloro-4-{[6-methoxy-7-(3-pyridylmethoxy)-4-quinolyl]oxy}phenyl)-N′-(2,4-difluorophenyl)urea] | 3.7 | 55 | 
COc1cc2c(Oc3ccc(NC(=O)Nc4ccc(F)cc4F)c(Cl)c3)ccnc2cc1OCCn1ccnn1 [Example 170, N-[2-chloro-4-(6-methoxy-7-{[2-(1H-1,2,3-triazol-1-yl)ethoxy]-4-quinolyl}oxy)phenyl]-N′-(2,4-difluorophenyl)urea] | 1.1 |  | 64
CCNC(=O)Nc1cc(C)c(Oc2ccnc3cc(OCCN4CCOCC4)c(OC)cc23)cc1C [Example 175, N-Ethyl-N′-(4-{[6-methoxy-7-(2-morpholinoethoxy)-4-guinolyl]oxy}-2,5-dimethylphenyl)urea] | 4.7 | 17 | 
CCCNC(=O)Nc1cc(C)c(Oc2ccnc3cc(OCCCN4CCN(C)CC4)c(OC)cc23)cc1C [Example 176, N-[4-({6-Methoxy-7-[3-(4-methylpiperazino)-propoxy]-4-guinolyl}oxy)-2,5-dimethylphenyl]-N′-propylurea] | 3.7 | 22 | 
